Assay: H2O solubility of the chromatographed white solid
Type: physicochemical
Conditions: white solid after chromatography (2% methanol-CH2Cl2), before preparative hplc purification
Experimental: To a stirred solution of trifluoroacetic acid (10 ml), tetrahydrofuran (10 ml) and water (5 ml) at 0° C. is added, in one portion, 3.8 g (7.1 mmol) of the compound prepared in a) above. The reaction is stirred at 0° C. for 30 minutes, concentrated via rotary evaporation (bath temperature <20° C), mixed with saturated NH4HCO3 (5 mL) and stirred for 15 minutes. […] This material is further purified using preparative hplc (reverse phase eluted with 90% CH3CN-water) to give 2.9 g (82.4%) of the title compound as a white solid, m.p. 79-80° C.

Compound: CO[C@@H](C(=O)N[C@H]1CC[C@@H](OC(=O)C2CCCCC2)CNC1=O)[C@H](O)[C@@H](O)[C@H](O)/C=C/C(C)(C)C [Example 3, (2R, 3R, 4S, 5R, 6E)-3,4,5-trihydroxy-2-methoxy-8,8-dimethyl-N-[(3S,6R) -hexahydro-2-oxo-6-(cyclohexylcorbonyl)oxy-2H-azepin-3-3-yl]non-6-enamide]
- H2O solubility: 3700 µg/mL
